Results from patent US7063946B2, “Methods, reagents, kits and apparatus for protein function analysis” (Meso Scale Technologies, LLC., priority 2001, dated 2006).

Tests used:
[1] = molecular target: T1, EGFR-pY992 (SEQ ID NO: 5) (Homo sapiens, UniProt P00533); assay: Single-well 4-spot assay for multiple peptide-protein interactions; format: binding; conditions: 4-spot plate
T1 construct: phosphotyrosine at Tyr992 (chemical modification); purchased New England Peptide, Fitchburg Mass; host or cells: chemical synthesis
Source text: Four phosphopeptides and their cognate binding proteins (Table 14) were selected for an integrated assay of multiple peptide-protein interaction in 4-spot Multi-Array plates. The IkBa-24pp peptide and its binding protein, βTRCP, are described in Example 10. […] These phosphotyrosine containing peptides are recognized by different adaptor or effecter proteins of the receptor tyrosine kinase signaling pathway.
These four peptides were coupled to BSA carrier protein through cystine residue. After purification on PD-10 gel filtration columns, the peptide-BSA conjugates were then deposited on the assay domains of a 4-spot multi-array IPR plate (i.e., in one of the four exposed regions of working electrode defined by the dielectric layer) with an automated micro-dispensing system (Bio-Dot Dispenser, Bio-Dot, Irvine Calif.). […] These plates are dried then used or stored under desiccated conditions. A few hours prior to usage the plates were rehydrated and blocked with 3% BSA in PBS. […] The in vitro translated and biotin-labeled proteins were then assayed in the 4-spot multi-array IPR plates under conditions described in Example 10.

[2] = molecular target: T2, Fert2 (Mus musculus, UniProt P70451); assay: Kinase inhibitor profiling, pEY phosphorylation; format: biochemical
T2 construct: specificity data for proteins generated from a library of eighteen full-length clones; host or cells: rabbit reticulocyte lysate, TnT coupled transcription/translation

[3] = test system: FRK; assay: Kinase inhibitor profiling, pEY phosphorylation; format: biochemical

T2 sequence (P70451 whole entry): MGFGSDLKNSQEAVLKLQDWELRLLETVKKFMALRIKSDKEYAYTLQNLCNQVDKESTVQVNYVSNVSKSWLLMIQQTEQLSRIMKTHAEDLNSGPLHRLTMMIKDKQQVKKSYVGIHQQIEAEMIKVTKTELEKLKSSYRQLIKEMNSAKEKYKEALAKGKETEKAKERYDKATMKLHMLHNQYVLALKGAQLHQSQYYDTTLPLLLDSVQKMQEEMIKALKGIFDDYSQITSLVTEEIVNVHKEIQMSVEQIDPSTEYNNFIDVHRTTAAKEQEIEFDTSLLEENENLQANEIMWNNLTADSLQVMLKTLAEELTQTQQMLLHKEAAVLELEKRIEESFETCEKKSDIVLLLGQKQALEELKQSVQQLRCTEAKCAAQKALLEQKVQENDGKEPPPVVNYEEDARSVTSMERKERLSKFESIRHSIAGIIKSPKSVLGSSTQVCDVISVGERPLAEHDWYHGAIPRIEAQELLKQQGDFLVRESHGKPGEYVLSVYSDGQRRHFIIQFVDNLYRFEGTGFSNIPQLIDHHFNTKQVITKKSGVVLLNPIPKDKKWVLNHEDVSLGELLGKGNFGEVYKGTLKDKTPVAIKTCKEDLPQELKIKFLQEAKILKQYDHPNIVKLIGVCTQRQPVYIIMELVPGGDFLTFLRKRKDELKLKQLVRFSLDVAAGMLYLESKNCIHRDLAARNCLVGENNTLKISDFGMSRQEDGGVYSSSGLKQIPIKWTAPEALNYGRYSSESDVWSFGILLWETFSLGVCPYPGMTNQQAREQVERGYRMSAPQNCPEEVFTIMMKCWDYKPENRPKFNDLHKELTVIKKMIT

ECL signal, spot 4 EGFR-pY992 [1]	Molecule	Inhibition specificity towards pEY phosphorylation at 10X IC50, Fert2 [2]	Inhibition specificity towards pEY phosphorylation at 10X IC50, FRK [3]
498	3872466: IMAGE clone protein: mCBP [compound 3872466]	–	–
–	COc1c(C=O)c(O)cc2c1C(=O)c1ccccc1C2=O [Damnacanthal]	L (low inhibition (“L”=between 50–75% of the activity remaining))	H (high inhibition (“H”=less than 25% of the activity remaining))
